Data on 1 molecule can be found in US7989420B2, “Smooth muscle relaxation” (New York Medical College, priority 2006, dated 2011).

The test system of test [1] is VASP serine-239 phosphorylation (cGMP-dependent protein kinase activation). Put plainly: Western blot of VASP serine-239 phosphorylation in BPA. In kind it is cell-based, bovine. The note with it: organ culture with 100 μM ALA. As to the method:
Rings from studies on contractile function were snap-frozen in liquid nitrogen, crushed and homogenized in lysis buffer (50 mM Tris-HCl, pH 8.0, 150 mM NaCl, 1 mM EDTA, 1% Triton X-100, 0.5% sodium deoxycholate, 0.1% sodium dodecyl sulfate, 1% of a protease inhibitor cocktail (Sigma) and 1% of a phosphatase inhibitor cocktail (Sigma). The protease inhibitor cocktail included 4-(2-aminoethyl)benzenesulfonyl floride hydrocholride, aprotinin, bestatin hydrochloride, N-(trans-epoxsuccinyl)-L-leucine-4-guanidinobutylamide, leupeptine hemisulfate, pepstatin and the phosphatase inhibitor cocktail included sodium orthovandate, sodium molybdate, sodium tartarate, and imidazole. Protein concentration was determined and 30 μg of protein samples were prepared in electrophoresis sample buffer containing 3% SDS and 3% β-mercaptoethanol and were separated using a 12% gel SDS-PAGE electrophoresis. Membranes were blocked for 1 h in TBST-5% milk and incubated overnight with phospho-VASP antibodies (diluted 1:1000). Membranes were exposed to a secondary horse radish peroxidase linked antibody and visualized with an ECL kit (Amersham). The membranes were subsequently exposed to X-OMAT autoradiography paper (Kodak). Membranes were stripped with TRIS-HCl buffer with 100 mM β-mercaptoethanol at 50° C. for 30 min. Membranes were subsequently washed, blocked and detected for total VASP. Each measurement of phosphorylated VASP was normalized to the total level of VASP, and data are reported as the percent of the levels of phosphorylated VASP seen in control arteries not exposed to agents which modulate the activity of sGC. Expression of sGC was detected with β-sGC subunit antibodies (diluted 1:2000), employing anti-rabbit secondary antibodies, and a protocol where membranes were blocked for 2 h. After analyzing for sGC protein expression, blots were stripped and re-probed for the detection of α-actin protein levels, which were used for normalization of data for statistical analysis based on protein loading.
(A western blot detects proteins with antibodies after separation by electrophoresis.)

The test system of test [2] is bovine pulmonary arteries (BPA). Nature of the test: Heme content of BPA homogenates (QuantiChrom heme assay). In kind it is cell-based. Conditions: organ culture with 100 μM ALA and/or 100 μM Fe. As to the method:
Heme was quantified in BPA homogenates using a QuantiChrom heme assay kit purchased from BioAssay Systems, and changes in absorbance were measured in a BIOTEK scanning microplate spectrophotometer. Briefly, segments were homogenized in 20 mM MOPS+sucrose buffer and diluted to approximately 5 mg protein/ml. Homogenates were centrifuged at 2000×g for 5 min, and 50 μl of supernatant obtained were assayed for their heme content based on the manufacture's instructions, employing measurements of changes in absorbance at 400 nm. The protein content of the supernatant was measured with Biorad protein assay kit, and tissue heme levels were reported as nanomoles/mg protein.

The target in test [3] is T1, sGC (Bos taurus, UniProt P16068).
T1 sequence (P16068 1-619): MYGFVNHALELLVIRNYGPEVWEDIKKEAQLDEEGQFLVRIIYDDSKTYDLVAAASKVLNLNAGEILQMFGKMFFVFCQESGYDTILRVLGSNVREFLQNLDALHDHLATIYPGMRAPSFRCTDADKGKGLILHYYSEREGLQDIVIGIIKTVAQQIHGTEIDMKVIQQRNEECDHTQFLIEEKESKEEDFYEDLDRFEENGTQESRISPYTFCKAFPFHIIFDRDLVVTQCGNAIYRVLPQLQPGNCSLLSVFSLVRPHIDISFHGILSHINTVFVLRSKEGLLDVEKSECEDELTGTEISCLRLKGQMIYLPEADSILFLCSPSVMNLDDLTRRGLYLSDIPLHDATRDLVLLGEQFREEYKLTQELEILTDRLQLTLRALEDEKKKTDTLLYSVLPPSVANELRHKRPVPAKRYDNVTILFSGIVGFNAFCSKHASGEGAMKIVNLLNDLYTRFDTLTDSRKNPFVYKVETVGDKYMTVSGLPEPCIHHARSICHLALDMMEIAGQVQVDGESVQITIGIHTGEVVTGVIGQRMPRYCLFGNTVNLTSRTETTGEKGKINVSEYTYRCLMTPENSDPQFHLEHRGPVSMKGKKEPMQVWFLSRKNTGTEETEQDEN
T1 sequence (P19687 1-691 partner): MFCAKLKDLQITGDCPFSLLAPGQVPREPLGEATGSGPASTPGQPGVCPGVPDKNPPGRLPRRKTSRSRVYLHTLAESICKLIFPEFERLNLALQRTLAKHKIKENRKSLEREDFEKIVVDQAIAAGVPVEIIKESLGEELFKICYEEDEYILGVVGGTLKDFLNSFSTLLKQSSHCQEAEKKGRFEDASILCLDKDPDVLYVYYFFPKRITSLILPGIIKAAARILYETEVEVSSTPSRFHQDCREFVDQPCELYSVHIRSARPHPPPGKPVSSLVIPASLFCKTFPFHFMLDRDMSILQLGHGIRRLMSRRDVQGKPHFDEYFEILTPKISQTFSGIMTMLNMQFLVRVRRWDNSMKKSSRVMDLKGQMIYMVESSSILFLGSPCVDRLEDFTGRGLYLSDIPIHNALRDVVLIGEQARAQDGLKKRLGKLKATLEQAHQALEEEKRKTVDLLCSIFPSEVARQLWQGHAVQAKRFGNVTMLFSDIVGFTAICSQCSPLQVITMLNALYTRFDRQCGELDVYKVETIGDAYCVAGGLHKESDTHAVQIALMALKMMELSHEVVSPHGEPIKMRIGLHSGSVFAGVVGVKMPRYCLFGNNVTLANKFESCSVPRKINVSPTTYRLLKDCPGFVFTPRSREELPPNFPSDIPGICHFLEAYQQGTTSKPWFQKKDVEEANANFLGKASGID
Nature of the test: sGC activity in BPA homogenates (cGMP by ELISA). In kind it is biochemical, bovine. More on the design: Guanylate cyclase activity of homogenates of BPA was measured by enzyme immunoassay; from tissue; host or cells: BPA (pulmonary artery rings, organ cultured) homogenate. The note with it: organ culture with 100 μM ALA and/or 100 μM Fe. As to the method: Guanylate cyclase activity of homogenates of BPA was measured by enzyme immunoassay of the amounts of cGMP generated. Briefly, BPA were pulverized in liquid nitrogen and homogenized in MOPS buffer 1:3 wt to buffer ratio at 5° C. Reaction mixture (0.2 ml final volume) contained 20 mM MOPS-KOH (pH 7.4), 0.1 mM GTP, 2 mM MgCl2, 0.3 mM of the phosphodiesterase inhibitor 3-Isobutyl-1-methylxanthine, a GTP-regenerating system consisting of 10 mM phosphocreatine and 150 U/ml creatine phosphokinase, and 0.1 ml of homogenate (11, 15), and test agents, as indicated. Assays of sGC activity were initiated by the addition of BPA homogenate. Incubations were conducted for 10 min at 37° C., and they were terminated by the addition of 0.1 ml of preheated 12 mM EDTA. This was followed by boiling the assay mixtures for 10 min and a subsequent addition of 5% trichloroacetic acid. The precipitate was removed by centrifugation and the supernatant was washed three times with water-saturated diethyl ether. Residual ether was removed by incubation at 70° C. for 5 minutes, prior to measurement of cGMP by ELISA (Cayman), as described in the manual supplied by manufacturer of the ELISA kit.

In the case of `NCC(=O)CCC(=O)O` [ALA, δ-aminolevulinic acid], the “VASP serine-239 phosphorylation” value in test [1] is “increase in VASP phosphorylation”. Further, the BPA heme levels result in test [2] was “did not reach statistical significance”. Also, in test [3], the “BPA homogenate sGC activity” value is on record as “increase in BPA homogenate sGC activity”.
